Assay results as given in US20230174523A1, “BENZENESULFONAMIDE DERIVATIVES AS TRAP1 MODULATORS AND USES THEREOF” (Amathus Therapeutics, Inc., priority 2020, published 2023).

Molecular target: T1, TRAP1 enzyme (Homo sapiens, UniProt Q12931)
T1 sequence (Q12931 60-704): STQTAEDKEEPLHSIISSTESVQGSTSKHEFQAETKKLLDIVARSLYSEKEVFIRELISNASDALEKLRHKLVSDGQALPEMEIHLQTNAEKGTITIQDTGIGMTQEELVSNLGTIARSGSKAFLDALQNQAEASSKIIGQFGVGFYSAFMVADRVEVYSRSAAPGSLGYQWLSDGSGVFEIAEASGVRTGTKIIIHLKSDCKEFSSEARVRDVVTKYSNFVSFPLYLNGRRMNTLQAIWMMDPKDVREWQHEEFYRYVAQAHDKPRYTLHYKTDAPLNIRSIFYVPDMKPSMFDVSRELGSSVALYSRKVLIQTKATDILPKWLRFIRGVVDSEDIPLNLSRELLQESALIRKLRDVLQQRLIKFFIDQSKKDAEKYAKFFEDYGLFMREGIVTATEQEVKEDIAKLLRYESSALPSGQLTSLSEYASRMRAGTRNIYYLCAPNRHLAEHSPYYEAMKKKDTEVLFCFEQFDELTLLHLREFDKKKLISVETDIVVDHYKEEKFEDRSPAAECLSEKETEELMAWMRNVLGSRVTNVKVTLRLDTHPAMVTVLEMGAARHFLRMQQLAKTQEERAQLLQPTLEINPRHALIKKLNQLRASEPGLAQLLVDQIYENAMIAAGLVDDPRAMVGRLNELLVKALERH
Assay: ADP Glo assay of TRAP1 ATPase activity
Assay type: biochemical
Conditions: for EC50: TRAP1 ATPase activation, 150 nM Trap1, 20 μM ATP, geometric mean, read-out: ADP GLO DRC: GeoMean EC50; for Emax: read-out: ADP GLO DRC: Mean Emax
Procedure, shortened: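 150 nM TRAP1 preincubated with compound (0.79–100 μM) 30 min at 37° C in Pipes pH 7.5 buffer (0.05 mM MgCl2, 40 mM KCl), then 20 μM ATP added for 60 min at 37° C. ADP quantified by ADP-Glo luminescence against ATP/ADP standard curve. Emax and EC50 from sigmoidal fit.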

Structure (SMILES)	EC50	Emax
COc1ccc(NC(=O)c2ccc3ocnc3c2)cc1S(=O)(=O)Nc1c(C)cccc1C [Compound 1272]	20 to 100 µM	123 to 159%
COc1ccc(NC(=O)c2cc(Cl)ncc2C(F)(F)F)cc1S(=O)(=O)Nc1c(C)cccc1C [Compound 1274]	20 to 100 µM	123 to 159%
COc1ccc(NC(=O)c2ncccc2C(=O)c2ccccc2)cc1S(=O)(=O)Nc1c(C)cccc1C [Compound 1275]	20 to 100 µM	123 to 159%
COc1ccc(NC(=O)c2c(-c3ccccc3)noc2C)cc1S(=O)(=O)Nc1c(C)cccc1C [Compound 1279]	< 10 µM	200 to 300%
CCn1nc(C(C)C)cc1C(=O)Nc1ccc(F)c(S(=O)(=O)Nc2ccc(Cl)cc2)c1 [Compound 1282]	20 to 100 µM	123 to 159%
CCN1CCN(c2ccc(C(=O)Nc3ccc(OC)c(S(=O)(=O)Nc4c(C)cccc4C)c3)cc2)CC1 [Compound 1283]	20 to 100 µM	123 to 159%
COc1ccc(NC(=O)c2ccnc(-c3ccccc3)c2)cc1S(=O)(=O)Nc1c(C)cccc1C [Compound 1285]	< 10 µM	200 to 300%
CCc1cc(C(=O)Nc2ccc(F)c(S(=O)(=O)Nc3ccc(Cl)cc3)c2)cc(C)n1 [Compound 1286]	20 to 100 µM	123 to 159%
COc1ccc(NC(=O)c2cc3cnccc3s2)cc1S(=O)(=O)Nc1c(C)cccc1C [Compound 1287]	20 to 100 µM	123 to 159%
COc1ccc(NC(=O)c2c[nH]c3cnccc23)cc1S(=O)(=O)Nc1c(C)cccc1C [Compound 1288]	20 to 100 µM	160 to 199%
COc1ccc(NC(=O)c2cccc(-c3csc(C)n3)c2)cc1S(=O)(=O)Nc1c(C)cccc1C [Compound 1290]	< 10 µM	160 to 199%
COc1ccc(NC(=O)c2cnn(-c3ccccc3)c2)cc1S(=O)(=O)Nc1c(C)cccc1C [Compound 1292]	10 to 20 µM	200 to 300%
COc1ccc(NC(=O)c2coc(-c3ccccc3)n2)cc1S(=O)(=O)Nc1c(C)cccc1C [Compound 1301]	< 10 µM	160 to 199%
COc1ccc(NC(=O)c2c[nH]c(-c3c(F)cccc3F)n2)cc1S(=O)(=O)Nc1ccc(Br)cc1 [Compound 1328]	< 10 µM	160 to 199%
COc1ccc(NC(=O)c2cnc3ccccc3c2)cc1S(=O)(=O)Nc1c(C)cccc1C [Compound 1330]	< 10 µM	200 to 300%
CCc1ccc(NC(=O)c2cnn(-c3ccc(Cl)cc3)c2C)cc1S(=O)(=O)Nc1ccc(Cl)cc1 [Compound 1335]	20 to 100 µM	123 to 159%
COc1ccc(NC(=O)c2ncc(-c3ccccc3)o2)cc1S(=O)(=O)Nc1c(C#N)cccc1C(F)(F)F [Compound 1343, N-(3-(N-(2-cyano-6-(trifluoromethyl)phenyl)sulfamoyl)-4-methoxyphenyl)-5-phenyloxazole-2-carboxamide]	20 to 100 µM	200 to 300%
COc1ccc(NC(=O)c2cn(C)c3ncccc23)cc1S(=O)(=O)Nc1ccc(Cl)cc1 [Compound 1345]	< 10 µM	160 to 199%
CCc1ccc(NC(=O)c2cccc3ncn(C)c23)cc1S(=O)(=O)Nc1c(C)cccc1C [Compound 1353]	10 to 20 µM	160 to 199%
COc1ccc(NC(=O)c2cc3ccccc3[n+](C)c2)cc1S(=O)(=O)Nc1c(C)cccc1C [Compound 1356, 3-((3-(N-(2,6-dimethylphenyl)sulfamoyl)-4-methoxyphenyl)carbamoyl)-1-methylquinolin-1-ium]	20 to 100 µM	160 to 199%
COc1ccc(NC(=O)c2ncc(-c3ccccc3)o2)cc1S(=O)(=O)Nc1c(C)cccc1C#N [Compound 1357]	10 to 20 µM	160 to 199%
COc1ccc(NC(=O)c2ccc3cn(C)nc3c2)cc1S(=O)(=O)Nc1c(C)cccc1C [Compound 1362]	10 to 20 µM	200 to 300%
COc1ccc(NC(=O)c2ccc3cnn(C)c3c2)cc1S(=O)(=O)Nc1c(C)cccc1C [Compound 1370]	20 to 100 µM	> 300%
COc1ccc(NC(=O)c2cc3c(C)nn(C)c3s2)cc1S(=O)(=O)Nc1c(Cl)cccc1Cl [Compound 1375]	10 to 20 µM	160 to 199%

Structure (SMILES)	EC50	Emax
COc1ccc(NC(=O)c2cnc(-c3ccsc3)[nH]2)cc1S(=O)(=O)Nc1ccc(Cl)cc1 [Compound 1482]	< 10 µM	160 to 199%
COc1ccc(NC(=O)c2ncc(-c3ccccc3)o2)cc1S(=O)(=O)Nc1c(C)cc(C)nc1C [Compound 1575]	20 to 100 µM	123 to 159%
COc1ccc(NC(=O)c2ncc(-c3ccccc3)o2)cc1S(=O)(=O)Nc1c(C)ccc2ncccc12 [Compound 1605]	< 10 µM	160 to 199%
COc1ccc(NC(=O)c2ncc(-c3ccccc3)o2)cc1S(=O)(=O)Nc1c(C)ccnc1OC [Compound 1666]	10 to 20 µM	123 to 159%
COc1ccc(NC(=O)c2ncc(-c3ccccc3)o2)cc1S(=O)(=O)Nc1sc2c(c1C#N)CCCC2 [Compound 1671]	10 to 20 µM	160 to 199%
COc1ccc(NC(=O)c2ncc(-c3ccccc3)o2)cc1S(=O)(=O)Nc1sc(C)c(C)c1C#N [Compound 1672]	10 to 20 µM	160 to 199%
COc1ccc(NC(=O)c2ncc(-c3ccccc3)o2)cc1S(=O)(=O)Nc1ccc(C)nc1F [Compound 1684]	20 to 100 µM	123 to 159%
COc1ccc(NC(=O)c2ncc(-c3ccccc3)o2)cc1S(=O)(=O)Nc1c(C)csc1C [Compound 1693]	< 10 µM	160 to 199%
CCc1nccc(C)c1NS(=O)(=O)c1cc(NC(=O)c2ncc(-c3ccccc3)o2)ccc1OC [Compound 1697]	20 to 100 µM	123 to 159%
COc1ccc(NC(=O)c2ncc(-c3ccccc3)o2)cc1S(=O)(=O)Nc1cccc(C(F)(F)F)n1 [Compound 1805]	10 to 20 µM	200 to 300%
COc1ccc(NC(=O)c2ncc(-c3ccccc3)o2)cc1S(=O)(=O)Nc1c(C(C)C)ccnc1C(C)C [Compound 1809]	< 10 µM	160 to 199%
COc1ccc(NC(=O)c2ncc(-c3ccccc3)o2)cc1S(=O)(=O)Nc1cc2ccccc2nn1 [Compound 1825]	20 to 100 µM	160 to 199%
COc1ccc(NC(=O)c2cnc(-c3cccs3)[nH]2)cc1S(=O)(=O)Nc1ccc(Cl)cc1 [Compound 1938]	< 10 µM	200 to 300%
COc1ccc(NC(=O)c2csc3c2C2CCN3CC2)cc1S(=O)(=O)Nc1c(C)cccc1C [Compound 1945]	10 to 20 µM	160 to 199%
COc1ccc(NC(=O)c2cnc(-c3cccnc3OC)[nH]2)cc1S(=O)(=O)Nc1ccc(Cl)cc1 [Compound 1951]	< 10 µM	160 to 199%
COc1ccc(NC(=O)c2cocn2)cc1S(=O)(=O)Nc1ccc(Cl)cc1 [Compound 1961]	20 to 100 µM	160 to 199%
COc1ccc(NC(=O)c2ccc(C)nc2OC)cc1S(=O)(=O)Nc1ccc(Cl)cc1 [Compound 1963]	20 to 100 µM	160 to 199%
COc1ccc(NC(=O)c2cnc(-c3c(OC)cccc3OC)[nH]2)cc1S(=O)(=O)Nc1ccc(Cl)cc1 [Compound 1969]	10 to 20 µM	200 to 300%
COc1ccc(NC(=O)c2cnc(-c3ccccc3C)[nH]2)cc1S(=O)(=O)Nc1ccc(Cl)cc1 [Compound 1971]	< 10 µM	200 to 300%
COc1ccc(NC(=O)c2csc(-c3ccccc3)n2)cc1S(=O)(=O)N(CC(O)CO)c1ccc(Cl)cc1 (stereo not drawn) [Compound 2404]	< 10 µM	123 to 159%
COc1ccc(NC(=O)c2csc(-c3cc(F)c(F)c(F)c3)n2)cc1S(=O)(=O)Nc1c(C)csc1C [Compound 2406]	< 10 µM	123 to 159%
COc1ccc(NC(=O)c2coc(-c3cc(F)c(F)c(F)c3)n2)cc1S(=O)(=O)Nc1c(C)csc1C [Compound 2415]	< 10 µM	123 to 159%
COc1ccc(NC(=O)c2ncoc2C(C)C)cc1S(=O)(=O)Nc1ccc(Cl)cc1 [Compound 2476]	10 to 20 µM	123 to 159%
COc1ccc(NC(=O)c2ncc(-c3cc(F)c(F)c(F)c3)o2)cc1S(=O)(=O)Nc1c(C)csc1C [Compound 2519]	20 to 100 µM	123 to 159%
